Laboratory results from patent US8206751B2, “Class of therapeutics that enhance small molecule diffusion” (Diffusion Pharmaceuticals LLC, priority 2007, dated 2012).

Assays:
[1] = Oxygen transport across the skin, transcutaneous oxygen monitor (TCOM); format: in vivo; settings: normal rat switched to 100% oxygen at time zero, intravenous injection in the femoral vein, versus saline control
Protocol: Diffusion enhancing compounds such as kosmotropes increase the oxygen transport in vivo. In the subject experiment, the oxygen diffusing through the skin of a normal, non-diseased rat was measured using a transcutaneous oxygen monitor (TCOM). In the subject study, the rats breathed air and then were switched to breathing 100% oxygen at a time equal to zero. Also at time zero, the rats were injected (intravenously in the femoral vein) with either saline (control), trehalose, glycine betaine, or TSC.

[2] = rats breathing 100% oxygen; cited from earlier work
[3] = TSC concentrations from 1 μmole/liter to around 200 μmole/liter; cited from earlier work
[4] = Glucose diffusion through aqueous kosmotrope solutions, microinterferometric method; format: physicochemical; settings: about 10 μM kosmotrope in water, 25° C., glucose 0.9 molar
Protocol: The diffusion of glucose through aqueous solutions of the above-mentioned kosmotropes was measured using a microinterferometric method, Secor, R. M., AIChE Journal, 11: 452-456, 1965.
In this method, a wedge is formed by two microscope slides that have a partial coating of a metal such as aluminum on the inner sides of the wedge. The wedge is placed on a microscope stage and illuminated from below using some source of monochromatic light, such as a helium-neon laser. As the light passes through the wedge, the partial coating of aluminum allows some light to be transmitted, while some is reflected. This creates constructive and destructive lines known as interference fringes. The interference fringes can then be magnified by a microscope and recorded with a camera.
Molecules of glucose will diffuse along a concentration gradient of glucose. Since the refractive index of the solution is related to the concentration of the glucose, the fringes at a given point will change with time. […]
Solutions of three kosmotropes (proline, betaine and trehalose) in water were made, so that the solutions contained about 10 μM of each of the kosmotropes. Using the trehalose solution as an example, the diffusivity of glucose through each of these solutions was then measured in the following way.
The trehalose solution was divided into two parts. […] A camera recorded the resulting fringe pattern. […]

Row | Structure (SMILES) | oxygen transport across the skin (TCOM readings) [1] | brain oxygen level [2] | increase in the diffusivity of glucose through water [3] | diffusivity of glucose through the solution compared with plain water [4]
1 | CC(/C=C/C=C(\C)C(=O)[O-])=C\C=C\C=C(C)\C=C\C=C(/C)C(=O)[O-].[Na+].[Na+] [TSC, trans sodium crocetinate] | increased oxygen transport across the skin | further increased the brain oxygen level | around 30% | 
2 | C[N+](C)(C)CC(=O)O [glycine betaine, Glycine betaine] | increased oxygen transport across the skin |  |  | 
3 | OC[C@H]1O[C@H](O[C@H]2O[C@H](CO)[C@@H](O)[C@H](O)[C@H]2O)[C@H](O)[C@@H](O)[C@@H]1O [trehalose, Trehalose] | increased oxygen transport across the skin |  |  | greater than the value of glucose through plain water
